Measured values: paper PMC3858832 (Journal of Controlled Release, 2013)
Each block holds one substance with its values, some of them ahead of it. Where no end group is shown, it is not given here.

What was measured:
[1] = system: A549 cells; assay: Luciferase reporter gene transfection of A549 cells; format: cell-based, human; details: light units per well
[2] = Far-UV circular dichroism pH titration, midpoint of conformational transition (pKα); format: physicochemical; details: far-UV CD intensity at 220 nm vs pH; peptide 30-50 μM in 5 mM Tris amine titrated with HClO4; 37 °C (310 K); average of two or more independent experiments
Description: Therefore, we first investigated whether reducing hydrogen-bonding opportunities at the Dap side chain amine would improve its tolerance by cells in culture. Alkylation of the Dap primary amine may however also impact on the pKa. […] Measurement of side chain pKa in a peptide undergoing a conformational transition associated with a change in aggregation state is hindered by the large amounts of material required for potentiometric analyses and the unfavourable line broadening observed in NMR for self-associated peptides. Instead, we have observed the cooperative, pH responsive, change of conformation of cationic amphipathic peptides in aqueous solution using far-UV CD (Supp. Fig. 1B/C). LADap (Sup. Fig. 1B) and LADap(Me2) (Supp. Fig. 1C) adopt an α-helix conformation when dissolved in neutral or slightly basic aqueous solution and, when titrated with acid, an increasingly disordered conformation is observed. The CD intensity at 220 nm is considered indicative of α-helix content and can be plotted as a function of pH (Supp. Fig. 1D/E). […] Although other interactions may be expected to contribute to the pKα when compared with the pKa, an increase of the same magnitude (~ 0.6 pH units) is seen in both the pKα for the Dap rich peptide and the pKa for the model compound following dimethylation (Supp. Fig. 1D/E; Table 1).
Far-UV CD spectra were obtained for LAH4-L1, LAH6-L1 and the Dap and mono-methyl Dap containing analogues in aqueous Tris amine buffer at various pH (Supp. Fig. 4). […] For LAH4-L1, the pKα = 5.29 ± 0.25 and is in agreement with previous work while pKα = 4.45 ± 0.25 for LAH6-L1 is substantially higher than that reported recently for LAH6 peptides of greater hydrophobicity. The response of LADap4-L1 at 6.64 ± 0.08 is substantially more basic than the histidine-containing analogue. […]
Circular dichroism experiments - Peptides were dissolved in 5 mM Tris amine without pH adjustment at a final concentration of between 30 and 50 μM. The samples were titrated down by adding 0.3% or 1% (v/v) HClO4 solution in micro-litre amounts. ClO4- is optically […]
by HClO4 makes a significant improvement on spectral quality in the far-UV region. CD spectra were acquired on a Chirascan™ Spectrometer (Applied Photophysics, Leatherhead, UK) with samples maintained at 310 K. For pH titration experiments, far-UV CD spectra were obtained with the samples titrated down by adding 0.3% or 1% (v/v) HClO4 solution in micro-litre amounts. Spectra were recorded from 260 to 180 nm using a 0.5 mm path length and were processed using Chirascan software where a spectrum of the peptide free solution was subtracted and Savitzky-Gorlay smoothing with a convolution width of 5 points applied.
Results for all CD assay measurements are expressed as an average of two or more independent repeated experiments. […]
The pellets, containing lipid vesicles and associated peptides were transferred to Bruker 4 mm MAS rotors for NMR measurements. Lipid vesicles were also prepared in this way in the absence of peptide.
Solid-state NMR - 2H quadrupole echo experiments for samples containing either POPC-d31 or POPS-d31 were performed at 61.46 MHz on a Bruker Avance 400 NMR

[3] = system: GAPDH expression in A549 cells; assay: siRNA-mediated silencing of GAPDH expression in A549 cells (Western blot densitometry), with or without BALF; format: cell-based, human; details: Western blot densitometry 72 h post transfection
Description: (§3) The abilities of the peptides to successfully mediate specific silencing of GAPDH expression were then assessed in A549 cells (Fig. 2B), MCF-7 cells (Fig. 2C), HUVEC (Fig. 3A), THP-1 cells differentiated into macrophages (Fig. 4A) and undifferentiated THP-1 cells in suspension (Fig. 4B). Specific reductions in expression of GAPDH were assessed by densitometry of Western blots where the effects of administering siRNA targeting GAPDH was compared with that of non-targeting siRNA on the expression of GAPDH as endogenous reporter and β-actin as internal toxicity/specificity control (Figs. 2D, 3B, 4C).
To test the suitability of the peptides for future pulmonary delivery applications in vivo the ability of the peptides to mediate silencing of GAPDH expression in A549 cells was repeated in the presence of bronchoalveolar lavage fluid (BALF) as a model for airway surface liquid (ASL) (Fig. 2E/F).
(§4) siRNA transfection - A549, MCF-7 and THP-1 cells, were transfected with peptide/siRNA
complexes containing 50 or 100 pmol GAPDH siRNA or negative control siRNA/well in 6-
well plates, giving a final siRNA concentration of 50 or 100 nM. Cells were seeded at the
following densities; A549 and MCF-7 - 1 × 10^5 cells per well, THP-1 in suspension – 5 ×
10^5 cells per well, differentiated THP-1 – 1 × 10^6 cells per well.

[4] = system: MCF-7 cells; assay: Luciferase reporter gene transfection of MCF-7 cells; format: cell-based, human; details: 1 μg luciferase plasmid/well, 48 h
[5] = system: A549 cells; assay: Protein content per well as measure of cytotoxicity during transfection of A549 cells; format: cell-based, human; details: luciferase plasmid transfection, compared with LADap(Me2)
Description: The pKα of LADap(Me2) is raised by N,N-dimethylation and is likely to be too high to substantially aid endosomal release; dimethylation nevertheless has beneficial effects on the nucleic acid transfer properties of the resulting peptide. […] However, the protein content of the cells, commonly used to calibrate the amount of specific luciferase activity, can be misleading. […] Accordingly, the transfection efficacies of LADap and Lipofectamine 2000™ (4:1) in this experiment are substantially overstated. When luciferase activity is plotted per well (Supp. Fig. 1H), not only is the robust and non-toxic transfection efficacy of LAH4-L1 evident, offering a 13.0 fold improvement over Lipofectamine 2000™, but also the advantages of LADap(Me2) over LADap are clear. The luciferase delivery efficacy of LADap(Me2) however was insufficient for it to be considered for siRNA delivery and further modifications were conceived.
Luciferase Activity (light units/10 s)
Luciferase Activity (light units/10 s/mg protein)
Mean Residue Ellipticity @220 nm (deg cm […]
Supplementary Figure 1. […] The midpoint of the conformational transition is determined as 6.22 ± 0.16 for LADap4 (D) and 6.80 ± 0.11 for LADap(Me2)4 (E). […] Lipofectamine and LADap4 are toxic to A549 cells but the N,N-dimethylation of Dap (LADap(Me2)4) reduces toxicity and increases gene transfer efficacy despite the high pKα determined in […]

[6] = Analytical HPLC retention time as indicator of peptide hydrophobicity; format: physicochemical; details: 5-90% water/acetonitrile gradient, Waters Symmetry C8, 5 μm, 7.8 x 100 mm, Abs 215 nm
Description: (§1) A further six N,N-dimethyl-Dap variant, LADap(Me2)6-A1 was prepared in an attempt to circumvent this by reducing the hydrophobicity by substituting four leucines with alanine.
Supplementary Figure 5. Analytical HPLC of three Dap rich peptides with differing levels of alkylation. A 5-90% water/acetonitrile gradient system was used using a Waters Symmetry™ C8, 5 μm, 7.8 x 100 mm column. The N-methylation of LADap-6-L1 to LADap(Me)6-L1 reduces the retention time of the peptide marginally however N,N-dimethylation to LADap(Me2)6-L1 causes a substantial shift to longer retention time and is consistent with the insolubility of this latter peptides in aqueous media. A fourth peptide, […]
alanine residues did improve hydrophobicity but not sufficiently to make the peptide readily soluble in […]
(§2) (1 picture or pasted object on this page, not shown here)

[7] = Solubility in aqueous media / 50% trifluoroethanol; format: physicochemical
Description: as §1
Supplementary Figure 6. far-UV CD spectrum of LADap(Me2)6-L1 in 50% TFE.
A further six N,N-dimethyl-Dap variant, LADap(Me2)6-A1 was prepared in an attempt to circumvent this by reducing the hydrophobicity by substituting four leucines with alanine. While a small improvement in […]
spectrum was obtained (Supp. Fig. 6) which indicated the desired α-helix conformation would theoretically be obtainable if it could be delivered to the endosomal membrane.
as §2

[8] = system: GAPDH expression in suspension monocyte THP-1 cells; assay: siRNA-mediated silencing of GAPDH expression in suspension monocyte THP-1 cells (Western blot densitometry); format: cell-based, human; details: siRNA at 20 or 40 nM, peptide/siRNA 10:1 w/w, Western blot 72 h, three independent experiments
Description: as §3
Cells were transfected with peptide/siRNA complexes containing GAPDH siRNA (+) or negative control siRNA (−) and β-actin served as an internal control for equal protein loading and off target effects. Densitometry results are shown for as an average of three independently repeated experiments (C). […] Vectors were prepared as for siRNA transfection experiments and the peptide to siRNA weight ratio was 10:1 in all cases.
The cells were transfected with Lipofectamine 2000™ at 2 μl per
well under the same conditions.
as §4
complexes containing 50 or 100 pmol GAPDH siRNA or negative control siRNA/well in 6- […]
The bound secondary antibodies were detected with ECL™ Western blotting detection […]

- pKα at 37 °C (midpoint of the main conformational transition) [2]: 5.29 ± 0.25
Substance: KKALLAHALHLLALLALHLAHALKKA-NH2 [LAH4-L1, reference compound]
- fold improvement in luciferase activity per well over Lipofectamine 2000 (4:1) [1]: 13.0 fold
- reduction of GAPDH expression (silencing) ([3]; 50% BALF): 29.4 ± 11.8%
- reduction of GAPDH expression (silencing) ([3]; Opti-MEM I): 73.5 ± 3.7%

- pKα at 37 °C (midpoint of the main conformational transition) [2]: 6.62 ± 0.04
Substance: KKALLAXALXLLALLALXLAXALKKA-NH2 [LADap(Me)4-L1, LAH4-L1 derivative comprising four N-methylated Dap residues]
- fold improvement in luciferase expression over LADap4-L1 [4]: 4.1 fold
- fold improvement in luciferase expression over LAH4-L1 [4]: 2.0 fold

- pKα at 37 °C (midpoint of the main conformational transition) [2]: 5.33
Substance: KKLAHALHLLALLWLHLAHALKKA-NH2 [reference compound]

- pKα at 37 °C (midpoint of the main conformational transition) [2]: 6.22 ± 0.16
Substance: KKLAXALXLLALLWLXLAXALKKA-NH2 [LADap, 24-residue cationic amphipathic peptide with four Dap residues]
- cytotoxicity by protein content of wells [5]: notably more toxic

Second part, the substance before the results:

Substance: KKALLAXALXLLALLALXLAXALKKA-NH2 [LADap4-L1, LAH4-L1 derivative comprising four Dap residues]
- pKα at 37 °C (midpoint of the main conformational transition) [2]: 6.64 ± 0.08

Substance: KKHLLAHLLHLLALLALHLLHALKHK-NH2 [LAH6-L1]
- pKα at 37 °C (midpoint of the main conformational transition) [2]: 4.45 ± 0.25

Substance: KKLAXALXLLALLWLXLAXALKKA-NH2 [LADap(Me2), 24-residue cationic amphipathic peptide with four N,N-dimethyl-Dap residues]
- pKα at 37 °C (midpoint of the main conformational transition) [2]: 6.80 ± 0.11

Substance: KKXLLAXALXALLALLAXLAXALKXK-NH2 [LADap(Me2)6-A1, more hydrophilic six N,N-dimethyl-Dap variant, four leucines substituted with alanine]
- HPLC retention time (measure of hydrophobicity) [6]: 28.37 min
- solubility in aqueous media [7]: insufficiently soluble

Substance: KKXLLAXLLXLLALLALXLLXALKXK-NH2 [LADap6-L1, 26-residue peptide with six Dap residues]
- pKα at 37 °C (midpoint of the main conformational transition) [2]: 5.67 ± 0.17

Substance: KKXLLAXLLXLLALLALXLLXALKXK-NH2 [LADap(Me2)6-L1, 26-residue peptide with six N,N-dimethyl-Dap residues]
- solubility in 50% trifluoroethanol ([7]; 50% trifluoroethanol): soluble in 50% trifluoroethanol
- solubility in aqueous media [7]: insoluble in aqueous media

Substance: KKXLLAXLLXLLALLALXLLXALKXK-NH2 [LADap(Me)6-L1, 26-residue peptide with six N-methyl Dap residues]
- reduction of GAPDH expression (silencing) ([3]; Opti-MEM I): 88.0 ± 6.8%
- reduction of GAPDH expression [8]: 92.3 ± 3.7%
